The numbers were not newly measured in patent US8809627B2, “Plant isoflavone and isoflavanone O-methyltransferase genes” (The Samuel Roberts Noble Foundation, Inc., priority 2006, dated 2014), which cites them from elsewhere.

This series has as its target T1, MsI7OMT (Medicago sativa, UniProt O24529).
T1 sequence (O24529 1-352): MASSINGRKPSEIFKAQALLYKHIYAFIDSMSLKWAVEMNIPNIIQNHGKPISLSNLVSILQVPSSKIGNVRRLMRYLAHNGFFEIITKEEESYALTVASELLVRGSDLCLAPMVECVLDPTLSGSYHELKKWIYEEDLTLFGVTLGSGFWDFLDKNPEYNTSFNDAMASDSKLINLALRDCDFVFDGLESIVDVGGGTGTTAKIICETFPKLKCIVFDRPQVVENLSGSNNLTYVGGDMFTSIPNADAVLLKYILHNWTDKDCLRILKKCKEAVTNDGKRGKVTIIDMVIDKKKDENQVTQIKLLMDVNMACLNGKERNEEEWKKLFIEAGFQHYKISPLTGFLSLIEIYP
The following applies: reported by He et al., 1998; cited from earlier work.

For the molecule `O=c1c(-c2ccc(O)cc2)coc2cc(O)c(O)cc12` [6,7,4′-trihydroxyisoflavone], the “Activity of MsI7OMT relative to the activity with daidzein” value is reported as 136 % of the activity with daidzein.
